From patent publication US20250288683A1, “TETRAHYDROISOQUINOLINE HETEROBIFUNCTIONAL BCL-XL DEGRADERS” (Treeline Biosciences, Inc., priority 2022, published 2025)

Biological target: T1, Human BCL-XL protein (N-terminal HiBiT tagged BCL-XL in HT1080 cells) (Homo sapiens, UniProt Q07817)
T1 construct: expressed in transfected cells; host or cells: HT-1080 (ATCC CCL-121), stably transduced with lentivirus pLV-UBC-N-HiBiT-BCL-XL-PGK-puro and selected with puromycin
Experiment: HiBiT based degradation assay
Assay type: cell-based
Conditions: HT1080 cells expressing N-terminal HiBiT tagged BCL-XL, normalized with DMSO control

T1 sequence (Q07817 whole entry): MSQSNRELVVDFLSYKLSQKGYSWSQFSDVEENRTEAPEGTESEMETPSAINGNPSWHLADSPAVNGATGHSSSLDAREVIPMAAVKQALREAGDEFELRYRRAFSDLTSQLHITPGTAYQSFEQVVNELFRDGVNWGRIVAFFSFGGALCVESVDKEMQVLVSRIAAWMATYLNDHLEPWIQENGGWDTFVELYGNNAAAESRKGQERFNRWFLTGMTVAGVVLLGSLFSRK

Row | SMILES | Ymin (6 h) | Ymin (24 h)
1 | Cc1ncsc1-c1ccc([C@H](C)NC(=O)[C@@H]2C[C@@H](O)CN2C(=O)[C@@H](NC(=O)CCCCCn2nc(C)c(-c3ccc(N4CCc5cccc(C(=O)Nc6nc7ccccc7s6)c5C4)nc3C(=O)O)c2C)C(C)(C)C)cc1 [Compound 101a, 6-[8-(1,3-benzothiazol-2-ylcarbamoyl)-3,4-dihydro-1H-isoquinolin-2-yl]-3-[1-[6-[[(1S)-1-[(2S,4R)-4-hydroxy-2-[[(1S)-1-[4-(4-methylthiazol-5-yl)phenyl]ethyl]carbamoyl]pyrrolidine-1-carbonyl]-2,2-dimethyl-propyl]amino]-6-oxo-hexyl]-3,5-dimethyl-pyrazol-4-yl]pyridine-2-carboxylic acid] | A (Ymin < 50%) | –
2 | CC(=O)O[C@@H]1C[C@@H](C(=O)N[C@@H](C)c2ccc(-c3scnc3C)cc2)N(C(=O)[C@@H](NC(=O)CCCc2ccc(Oc3cccc(-c4ccc(N5CCc6cccc(C(=O)Nc7nc8ccccc8s7)c6C5)nc4C(=O)O)c3C)cc2)C(C)(C)C)C1 [Compound 118a, 3-[3-[4-[4-[[(1S)-1-[(2S,4R)-4-acetoxy-2-[[(1S)-1-[4-(4-methylthiazol-5-yl)phenyl]ethyl]carbamoyl]pyrrolidine-1-carbonyl]-2,2-dimethyl-propyl]amino]-4-oxo-butyl]phenoxy]-2-methyl-phenyl]-6-[8-(1,3-benzothiazol-2-ylcarbamoyl)-3,4-dihydro-1H-isoquinolin-2-yl]pyridine-2-carboxylic acid] | – | B (50% ≤ Ymin < 70%)
3 | Cc1ncsc1-c1ccc([C@H](C)NC(=O)[C@@H]2C[C@@H](O)CN2C(=O)[C@@H](n2cc(CCCCCOc3cccc(-c4ccc(N5CCc6cccc(C(=O)Nc7nc8ccccc8s7)c6C5)nc4C(=O)O)c3C)nn2)C(C)(C)C)cc1 [Compound 126a, 6-[8-(1,3-benzothiazol-2-ylcarbamoyl)-3,4-dihydro-1H-isoquinolin-2-yl]-3-[3-[5-[1-[(1S)-1-[(2S,4R)-4-hydroxy-2-[[(1S)-1-[4-(4-methylthiazol-5-yl)phenyl]ethyl]carbamoyl]pyrrolidine-1-carbonyl]-2,2-dimethyl-propyl]triazol-4-yl]pentoxy]-2-methyl-phenyl]pyridine-2-carboxylic acid] | – | A (Ymin < 50%)
4 | Cc1ncsc1-c1ccc([C@H](C)NC(=O)[C@@H]2C[C@@H](O)CN2C(=O)[C@@H](NC(=O)CCCCCCCOc2cccc(-c3ccc(N4CCc5cccc(C(=O)Nc6nc7ccccc7s6)c5C4)nc3C(=O)O)c2C)C(C)(C)C)cc1 [Compound 107a, 6-[8-(1,3-benzothiazol-2-ylcarbamoyl)-3,4-dihydro-1H-isoquinolin-2-yl]-3-[3-[8-[[(1S)-1-[(2S,4R)-4-hydroxy-2-[[(1S)-1-[4-(4-methylthiazol-5-yl)phenyl]ethyl]carbamoyl]pyrrolidine-1-carbonyl]-2,2-dimethyl-propyl]amino]-8-oxo-octoxy]-2-methyl-phenyl]pyridine-2-carboxylic acid] | B (50% ≤ Ymin < 70%) | –
5 | Cc1ncsc1-c1ccc([C@@H](NC(=O)[C@@H]2C[C@@H](O)CN2C(=O)[C@@H](NC(=O)CCCc2ccc(Oc3cccc(-c4ccc(N5CCc6cccc(C(=O)Nc7nc8ccccc8s7)c6C5)nc4C(=O)O)c3C)cc2)C(C)(C)C)C(F)(F)F)cc1 [Compound 120a, 6-[8-(1,3-benzothiazol-2-ylcarbamoyl)-3,4-dihydro-1H-isoquinolin-2-yl]-3-[3-[4-[4-[[(1S)-1-[(2S,4R)-4-hydroxy-2-[[(1R)-2,2,2-trifluoro-1-[4-(4-methylthiazol-5-yl)phenyl]ethyl]carbamoyl]pyrrolidine-1-carbonyl]-2,2-dimethyl-propyl]amino]-4-oxo-butyl]phenoxy]-2-methyl-phenyl]pyridine-2-carboxylic acid] | – | A (Ymin < 50%)
6 | Cc1ncsc1-c1ccc([C@H](C)NC(=O)[C@@H]2C[C@@H](O)CN2C(=O)[C@@H](NC(=O)CCCCCCCCCCCCCn2nc(C)c(-c3ccc(N4CCc5cccc(C(=O)Nc6nc7ccccc7s6)c5C4)nc3C(=O)O)c2C)C(C)(C)C)cc1 [Compound 104a, 6-[8-(1,3-benzothiazol-2-ylcarbamoyl)-3,4-dihydro-1H-isoquinolin-2-yl]-3-[1-[14-[[(1S)-1-[(2S,4R)-4-hydroxy-2-[[(1S)-1-[4-(4-methylthiazol-5-yl)phenyl]ethyl]carbamoyl]pyrrolidine-1-carbonyl]-2,2-dimethyl-propyl]amino]-14-oxo-tetradecyl]-3,5-dimethyl-pyrazol-4-yl]pyridine-2-carboxylic acid] | B (50% ≤ Ymin < 70%) | –
7 | Cc1ncsc1-c1ccc([C@H](C)NC(=O)[C@@H]2C[C@@H](O)CN2C(=O)[C@@H](NC(=O)C[C@H]2CC[C@H](Oc3cccc(-c4ccc(N5CCc6cccc(C(=O)Nc7nc8ccccc8s7)c6C5)nc4C(=O)O)c3C)CC2)C(C)(C)C)cc1 [Compound 116a, 6-(8-(benzo[d]thiazol-2-ylcarbamoyl)-3,4-dihydroisoquinolin-2 (1H)-yl)-3-(3-(((1S,4r)-4-(2-(((S)-1-((2S,4R)-4-hydroxy-2-(((S)-1-(4-(4-methylthiazol-5-yl)phenyl)ethyl)carbamoyl)pyrrolidin-1-yl)-3,3-dimethyl-1-oxobutan-2-yl)amino)-2-oxoethyl)cyclohexyl)oxy)-2-methylphenyl)picolinic acid] | – | A (Ymin < 50%)
8 | Cc1ncsc1-c1ccc([C@H](C)NC(=O)[C@@H]2C[C@@H](O)CN2C(=O)[C@@H](NC(=O)CCc2ccc(COc3cccc(-c4ccc(N5CCc6cccc(C(=O)Nc7nc8ccccc8s7)c6C5)nc4C(=O)O)c3C)cc2)C(C)(C)C)cc1 [Compound 114a, 6-(8-(benzo[d]thiazol-2-ylcarbamoyl)-3,4-dihydroisoquinolin-2(1H)-yl)-3-(3-((4-(3-(((S)-1-((2S,4R)-4-hydroxy-2-(((S)-1-(4-(4-methylthiazol-5-yl)phenyl)ethyl)carbamoyl)pyrrolidin-1-yl)-3,3-dimethyl-1-oxobutan-2-yl)amino)-3-oxopropyl)benzyl)oxy)-2-methylphenyl)picolinic acid] | B (50% ≤ Ymin < 70%) | A (Ymin < 50%)

Second part, the molecule after the results:

Row | Ymin (6 h) | Ymin (24 h) | SMILES
9 | – | A (Ymin < 50%) | Cc1ncsc1-c1ccc([C@H](C)NC(=O)[C@@H]2C[C@@H](O)CN2C(=O)[C@@H](NC(=O)C(F)(F)CCc2ccc(Oc3cccc(-c4ccc(N5CCc6cccc(C(=O)Nc7nc8ccccc8s7)c6C5)nc4C(=O)O)c3C)cc2)C(C)(C)C)cc1 [Compound 139a]
10 | – | A (Ymin < 50%) | Cc1ncsc1-c1ccc([C@H](C)NC(=O)[C@@H]2C[C@@H](O)CN2C(=O)[C@@H](NC(=O)C(F)(F)[C@H]2CC[C@H](Oc3cccc(-c4ccc(N5CCc6cccc(C(=O)Nc7nc8ccccc8s7)c6C5)nc4C(=O)O)c3C)CC2)C(C)(C)C)cc1 [Compound 144a]
11 | – | C (Ymin ≥ 70%) | Cc1ncsc1-c1ccc([C@H](C)NC(=O)[C@@H]2C[C@@H](O)CN2C(=O)[C@@H](NC(=O)C(F)(F)[C@H]2CC[C@@H](Oc3cccc(-c4ccc(N5CCc6cccc(C(=O)Nc7nc8ccccc8s7)c6C5)nc4C(=O)O)c3C)CC2)C(C)(C)C)cc1 [Compound 144b]
12 | – | B (50% ≤ Ymin < 70%) | Cc1ncsc1-c1ccc(CNC(=O)[C@@H]2C[C@@H](O)CN2C(=O)[C@@H](NC(=O)C2(F)CC2)C(C)(C)SCCCCCCCOc2cccc(-c3ccc(N4CCc5cccc(C(=O)Nc6nc7ccccc7s6)c5C4)nc3C(=O)O)c2C)cc1 [Compound 140a]
13 | – | A (Ymin < 50%) | Cc1ncsc1-c1ccc([C@H](C)NC(=O)[C@@H]2C[C@@H](O)CN2C(=O)[C@@H](NC(=O)CN2CCC(CCOc3cccc(-c4ccc(N5CCc6cccc(C(=O)Nc7nc8ccccc8s7)c6C5)nc4C(=O)O)c3C)CC2)C(C)(C)C)cc1 [Compound 123a, 6-(8-(benzo[d]thiazol-2-ylcarbamoyl)-3,4-dihydroisoquinolin-2 (1H)-yl)-3-(3-(2-(1-(2-(((S)-1-((2S,4R)-4-hydroxy-2-(((S)-1-(4-(4-methylthiazol-5-yl)phenyl)ethyl)carbamoyl)pyrrolidin-1-yl)-3,3-dimethyl-1-oxobutan-2-yl)amino)-2-oxoethyl)piperidin-4-yl)ethoxy)-2-methylphenyl)picolinic acid]
14 | – | B (50% ≤ Ymin < 70%) | Cc1ncsc1-c1ccc([C@H](C)NC(=O)[C@@H]2C[C@@H](O)CN2C(=O)[C@@H](NC(=O)C[C@@H](Cc2ccc(Oc3cccc(-c4ccc(N5CCc6cccc(C(=O)Nc7nc8ccccc8s7)c6C5)nc4C(=O)O)c3C)cc2)C(F)(F)F)C(C)(C)C)cc1 (relative stereo) [Compound 131b, 6-(8-(benzo[d]thiazol-2-ylcarbamoyl)-3,4-dihydroisoquinolin-2 (1H)-yl)-3-(3-(4-((R)-4-(((S)-1-((2S,4R)-4-hydroxy-2-(((S)-1-(4-(4-methylthiazol-5-yl)phenyl)ethyl)carbamoyl)pyrrolidin-1-yl)-3,3-dimethyl-1-oxobutan-2-yl)amino)-4-oxo-2-(trifluoromethyl)butyl)phenoxy)-2-methylphenyl)picolinic acid]
15 | – | A (Ymin < 50%) | Cc1ncsc1-c1ccc([C@H](C)NC(=O)[C@@H]2C[C@@H](O)CN2C(=O)[C@@H](NC(=O)C[C@H](Cc2ccc(Oc3cccc(-c4ccc(N5CCc6cccc(C(=O)Nc7nc8ccccc8s7)c6C5)nc4C(=O)O)c3C)cc2)C(F)(F)F)C(C)(C)C)cc1 (single isomer, unassigned) [Compound 131a]
